How the values were obtained:
tetanus toxoid [1] = assay: Tetanus toxoid remaining in supernatant after stirring with octadecyl tyrosine; type: physicochemical; details: pH 7.0, 24 hours room temperature
Method: Tetanus toxoid solution (10 ml, 30 Lf/ml, pH 7.0) was placed in a container with a magnetic stirring bar. An ether solution of octadecyl tyrosine (0.3 ml, 30 mg/ml) was added, the mixture stirred rapidly and the ether removed under vacuum. The resulting cloudy solution was stirred at room temperature for 24 hours.
To tetanus toxoid solution (10 ml, 30 Lf/ml, pH 7.0) was added dry octadecyl tyrosine base (10 mg) and the mixture stirred for 24 hours at room temperature.

[2] = system: guinea pigs which had been sensitized to tetanus toxoid; details: guinea pig, in vivo
tetanus toxoid [3] = system: tetanus toxoid; set-up: species or system guinea pigs; details: guinea pig, in vivo, sc

Row | Molecule | tetanus toxoid in supernatant, Procedure B (tetanus toxoid [1]; dry base 10 mg added to 10 ml toxoid 30 Lf/ml) | tetanus toxoid in supernatant, Procedure A (tetanus toxoid [1]; ether solution 0.3 ml, 30 mg/ml added to 10 ml toxoid 30 Lf/ml, after centrifuging) | Diameter of skin reaction [2] [mm] | Antibody Units/ml, 4 Weeks (tetanus toxoid [3]) [Units/ml] | Antibody Units/ml, 61/2 weeks (tetanus toxoid [3]) [Units/ml]
1 | CCCCCCCCCCCCCCCCCCOC(=O)[C@@H](N)Cc1ccc(O)cc1 [octadecyl tyrosine] | no detectable tetanus toxoid | no detectable tetanus toxoid | – | – | –
2 | Tetanus Toxoid | – | – | 17 ± 1.47 | 1.39 ± 0.2 | 7.2 ± 1.2

— patent US4258029A, “Synthetic adjuvants for stimulation of antigenic responses” (Connaught Laboratories Limited, priority 1979, dated 1981)
